Target: T1, cGAMP binding domain of wild-type (GRR) human STING, residues 155-341 (Homo sapiens, UniProt Q86WV6, H232R)
T1 construct: His-TEV-hSTING (WT); TEV protease cleavage site (N); made in house; host or cells: E. coli BL21 DE3
Experiment: Increase of stability of STING protein against thermal denaturation, Differential Scanning Fluorimetry (DSF)
Outline: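 3 µM His-tagged protein with 100 uM compound, 5×SYPRO Orange, 2% DMSO in 20 mM Tris, 150 mM NaCl, pH7.5; 15–95 °C ramp in 0.5 °C steps (15 s/cycle). Tm from Boltzmann fit of the dye melt curve, duplicates averaged, repeated if SD>1.5 °C; ΔTm = Tm with compound minus Tm of protein alone.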

T1 sequence (Q86WV6 with tags, fused parts or gaps H232R): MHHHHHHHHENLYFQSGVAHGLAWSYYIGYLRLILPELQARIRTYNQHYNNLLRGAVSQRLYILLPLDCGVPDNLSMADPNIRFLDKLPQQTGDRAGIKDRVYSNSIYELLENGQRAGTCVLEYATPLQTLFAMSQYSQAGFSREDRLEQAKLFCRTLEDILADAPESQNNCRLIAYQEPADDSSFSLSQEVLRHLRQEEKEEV

SMILES | DSF [K]
Cc1nc2nn(C)cc2cc1-n1nc(-c2cccc3nn(C[C@H](O)c4ccc(F)c(F)c4)cc23)c(C(C)C)c1C [Example 44, (1R)-1-(3,4-difluorophenyl)-2-[4-(1-{2,6-dimethyl-2H-pyrazolo[3,4-b]pyridin-5-yl}-5-methyl-4-(propan-2-yl)-1H-pyrazol-3-yl)-2H-indazol-2-yl]ethan-1-ol] | 26
Cc1nc2nn(CCCCN3CCN(C)CC3)cc2cc1-n1nc(-c2cccc3nn(C[C@H](O)c4ccccc4)cc23)c(C(C)C)c1C [Example 45, (1R)-2-[4-(5-methyl-1-{6-methyl-2-[4-(4-methylpiperazin-1-yl)butyl]-2H-pyrazolo[3,4-b]pyridin-5-yl}-4-(propan-2-yl)-1H-pyrazol-3-yl)-2H-indazol-2-yl]-1-phenylethan-1-ol] | 27
Cc1nc2nn(C)cc2cc1-n1nc(-c2cccc3nn(C[C@H](O)c4ccc(F)cc4)cc23)c(C(C)C)c1C [Example 46, (1R)-2-[4-(1-{2,6-dimethyl-2H-pyrazolo[3,4-b]pyridin-5-yl}-5-methyl-4-(propan-2-yl)-1H-pyrazol-3-yl)-2H-indazol-2-yl]-1-(4-fluorophenyl)ethan-1-ol] | 27
Cc1c(C(C)C)c(-c2cccc3nn(C[C@H](O)c4ccccc4)cc23)nn1-c1cc2cn(C)nc2nc1C1CCOC1 (stereo partly drawn) [Example 47, (1R)-2-(4-{5-methyl-1-[2-methyl-6-(oxolan-3-yl)-2H-pyrazolo[3,4-b]pyridin-5-yl]-4-(propan-2-yl)-1H-pyrazol-3-yl}-2H-indazol-2-yl)-1-phenylethan-1-ol] | 30
CCCn1cc2cc(-c3nc(-c4cccc5nn(CC(F)(F)c6ccccc6)cc45)c(C4CC4)n3C)c(C3CC3)nc2n1 [Example 48, 4-(5-cyclopropyl-2-{6-cyclopropyl-2-propyl-2H-pyrazolo[3,4-b]pyridin-5-yl}-1-methyl-1H-imidazol-4-yl)-2-(2,2-difluoro-2-phenylethyl)-2H-indazole] | 31
Cc1nc2nn(CCCN3CCOCC3)cc2cc1-n1nc(-c2cccc3nn(C[C@H](F)c4ccccc4)cc23)c(C(C)C)c1C [Example 49, 2-[(2R)-2-fluoro-2-phenylethyl]-4-(5-methyl-1-{6-methyl-2-[3-(morpholin-4-yl)propyl]-2H-pyrazolo[3,4-b]pyridin-5-yl}-4-(propan-2-yl)-1H-pyrazol-3-yl)-2H-indazole] | 26
Cc1c(C(C)C)c(-c2cccc3nn(C[C@H](O)c4ccccc4)cc23)nn1-c1cc2cn(C)nc2[n+]([O-])c1C1CC1 [Example 50, 6-cyclopropyl-5-(3-{2-[(2R)-2-hydroxy-2-phenylethyl]-2H-indazol-4-yl}-5-methyl-4-(propan-2-yl)-1H-pyrazol-1-yl)-2-methyl-2H-pyrazolo[3,4-b]pyridin-7-ium-7-olate] | 26
Cc1c(C(C)C)c(-c2cccc3nn(C[C@H](O)c4ccccc4)cc23)nn1-c1cc2cn(C)nc2nc1C1(F)CC1 [Example 51, (1R)-2-(4-{1-[6-(1-fluorocyclopropyl)-2-methyl-2H-pyrazolo[3,4-b]pyridin-5-yl]-5-methyl-4-(propan-2-yl)-1H-pyrazol-3-yl}-2H-indazol-2-yl)-1-phenylethan-1-ol] | 26
CO[C@@H](Cn1cc2c(-c3nn(-c4cc5cn(C)nc5nc4C)c(C)c3C(C)C)cccc2n1)c1ccccc1 [Example 52, 4-(1-{2,6-dimethyl-2H-pyrazolo[3,4-b]pyridin-5-yl}-5-methyl-4-(propan-2-yl)-1H-pyrazol-3-yl)-2-[(2R)-2-methoxy-2-phenylethyl]-2H-indazole] | 25
Cc1c(C(C)C)c(-c2cccc3nn(C[C@H](O)c4ccccc4)cc23)nn1-c1cc2cn(C)nc2nc1C1CCC1 [Example 53, (1R)-2-[4-(1-{6-cyclobutyl-2-methyl-2H-pyrazolo[3,4-b]pyridin-5-yl}-5-methyl-4-(propan-2-yl)-1H-pyrazol-3-yl)-2H-indazol-2-yl]-1-phenylethan-1-ol] | 30
Cc1c(C(C)C)c(-c2cccc3nn(C[C@H](O)c4ccccc4)cc23)nn1-c1cc2cn(C)nc2nc1CC1CC1 [Example 54, (1R)-2-(4-{1-[6-(cyclopropylmethyl)-2-methyl-2H-pyrazolo[3,4-b]pyridin-5-yl]-5-methyl-4-(propan-2-yl)-1H-pyrazol-3-yl}-2H-indazol-2-yl)-1-phenylethan-1-ol] | 28
Cn1cc2cc(-c3nc(-c4cccc5nn(C[C@H](O)c6ccc(O)cc6)cc45)c(C4CC4)n3C)c(C3CC3)nc2n1 [Example 55, 4-[(1R)-2-[4-(5-cyclopropyl-2-{6-cyclopropyl-2-methyl-2H-pyrazolo[3,4-b]pyridin-5-yl}-1-methyl-1H-imidazol-4-yl)-2H-indazol-2-yl]-1-hydroxyethyl]phenol] | 29
Cc1nc2nn(CC3CC3)cc2cc1-n1nc(-c2cccc3nn(C[C@H](O)c4ccccc4)cc23)c(C(C)C)c1C [Example 56, (1R)-2-(4-{1-[2-(cyclopropylmethyl)-6-methyl-2H-pyrazolo[3,4-b]pyridin-5-yl]-5-methyl-4-(propan-2-yl)-1H-pyrazol-3-yl}-2H-indazol-2-yl)-1-phenylethan-1-ol] | 25
CC(C)c1c(-c2cccc3nn(C[C@H](O)c4ccccc4)cc23)nc(-c2cc3cn(C)nc3nc2C(F)(F)F)n1C [Example 57, (1R)-2-(4-{1-methyl-2-[2-methyl-6-(trifluoromethyl)-2H-pyrazolo[3,4-b]pyridin-5-yl]-5-(propan-2-yl)-1H-imidazol-4-yl}-2H-indazol-2-yl)-1-phenylethan-1-ol] | 27
COC(C)c1nc2nn(C)cc2cc1-n1nc(-c2cccc3nn(C[C@H](O)c4ccccc4)cc23)c(C(C)C)c1C (stereo partly drawn) [Example 58, (1R)-2-(4-{1-[6-(1-methoxyethyl)-2-methyl-2H-pyrazolo[3,4-b]pyridin-5-yl]-5-methyl-4-(propan-2-yl)-1H-pyrazol-3-yl}-2H-indazol-2-yl)-1-phenylethan-1-ol] | 28
CCCc1nc2nn(C)cc2cc1-n1nc(-c2cccc3nn(C[C@H](O)c4ccccc4)cc23)c(C(C)C)c1C [Example 60, (1R)-2-[4-(5-methyl-1-{2-methyl-6-propyl-2H-pyrazolo[3,4-b]pyridin-5-yl}-4-(propan-2-yl)-1H-pyrazol-3-yl)-2H-indazol-2-yl]-1-phenylethan-1-ol] | 28
Cc1nc2nn(Cc3ncnn3C)cc2cc1-n1nc(-c2cccc3nn(C[C@H](O)c4ccccc4)cc23)c(C(C)C)c1C [Example 62, (1R)-2-[4-(5-methyl-1-{6-methyl-2-[(1-methyl-1H-1,2,4-triazol-5-yl)methyl]-2H-pyrazolo[3,4-b]pyridin-5-yl}-4-(propan-2-yl)-1H-pyrazol-3-yl)-2H-indazol-2-yl]-1-phenylethan-1-ol] | 25

Now from value to compound:

DSF [K] | SMILES
22 | Cc1nc2nn(C)cc2cc1-n1nc(-c2cccc3nn(C[C@H](OCC4CC4)c4ccccc4)cc23)c(C(C)C)c1C [Example 63, 2-[(2R)-2-(cyclopropylmethoxy)-2-phenylethyl]-4-(1-{2,6-dimethyl-2H-pyrazolo[3,4-b]pyridin-5-yl}-5-methyl-4-(propan-2-yl)-1H-pyrazol-3-yl)-2H-indazole]
26 | Cc1c(C(C)C)c(-c2cccc3nn(C[C@H](O)c4ccccc4)cc23)nn1-c1cc2cn(C)nc2nc1C(F)F [Example 64, (1R)-2-(4-{1-[6-(difluoromethyl)-2-methyl-2H-pyrazolo[3,4-b]pyridin-5-yl]-5-methyl-4-(propan-2-yl)-1H-pyrazol-3-yl}-2H-indazol-2-yl)-1-phenylethan-1-ol]
26 | Cc1nc2nn(C)cc2cc1-n1nc(-c2cccc3nn(CCc4ccc(OCCN(C)C)cc4)cc23)c(C(C)C)c1C [Example 65, [2-(4-{2-[4-(1-{2,6-dimethyl-2H-pyrazolo[3,4-b]pyridin-5-yl}-5-methyl-4-(propan-2-yl)-1H-pyrazol-3-yl)-2H-indazol-2-yl]ethyl}phenoxy)ethyl]dimethylamine]
23 | Cc1nc2nn(C)cc2cc1-n1nc(-c2cccc3nn(C[C@H](OCCCCO)c4ccccc4)cc23)c(C(C)C)c1C [Example 66, 4-[(1R)-2-[4-(1-{2,6-dimethyl-2H-pyrazolo[3,4-b]pyridin-5-yl}-5-methyl-4-(propan-2-yl)-1H-pyrazol-3-yl)-2H-indazol-2-yl]-1-phenylethoxy]butan-1-ol]
26 | Cc1nc2nn(CC(O)CO)cc2cc1-n1nc(-c2cccc3nn(C[C@H](O)c4ccccc4)cc23)c(C(C)C)c1C (stereo partly drawn) [Example 67, 3-[5-(3-{2-[(2R)-2-hydroxy-2-phenylethyl]-2H-indazol-4-yl}-5-methyl-4-(propan-2-yl)-1H-pyrazol-1-yl)-6-methyl-2H-pyrazolo[3,4-b]pyridin-2-yl]propane-1,2-diol]
28 | Cn1cc2cc(-c3nc(-c4cccc5nn(C[C@H](O)c6ccc(OCC7CCOCC7)cc6)cc45)c(C4CC4)n3C)c(C3CC3)nc2n1 [Example 68]
29 | Cn1cc2cc(-c3nc(-c4cccc5nn(C[C@H](O)c6ccc(OC7COC7)cc6)cc45)c(C4CC4)n3C)c(C3CC3)nc2n1 [Example 69, (1R)-2-[4-(5-cyclopropyl-2-{6-cyclopropyl-2-methyl-2H-pyrazolo[3,4-b]pyridin-5-yl}-1-methyl-1H-imidazol-4-yl)-2H-indazol-2-yl]-1-[4-(oxetan-3-yloxy)phenyl]ethan-1-ol]
24 | Cc1nc2nn(CC(O)CN3CCN(C)CC3)cc2cc1-n1nc(-c2cccc3nn(C[C@H](O)c4ccccc4)cc23)c(C(C)C)c1C (stereo partly drawn) [Example 70, 1-[5-(3-{2-[(2R)-2-hydroxy-2-phenylethyl]-2H-indazol-4-yl}-5-methyl-4-(propan-2-yl)-1H-pyrazol-1-yl)-6-methyl-2H-pyrazolo[3,4-b]pyridin-2-yl]-3-(4-methylpiperazin-1-yl)propan-2-ol]

From patent publication US20260265244A1, “HETEROCYCLIC COMPOUNDS AS STING ANTAGONISTS” (Boehringer Ingelheim International GmbH, priority 2022, published 2026)
